In patent publication US20070202047A1, “Polyamine-substituted ligands for use as contrast agents” (priority 2006, published 2007):
“Also recorded” adds a separate entry of the source.

Key:
[1] = test system: MH3924A Morris hepatoma cells; test: Intracellular uptake of gadolinium complexes (ICP-MS); format: cell-based, rat
Method: (§1) Cell culture. B16 melanoma cells (mouse) and MH3924A Morris hepatoma cells (rat) were obtained from the German Cancer Research Center (DKFZ) tumor bank and grown at 37° C. as stock cultures in RPMI 1640 supplemented with 10% fetal calf serum and 1% glutamine as standard medium under a 5% CO2 atmosphere (all components: Pan Biotech GmbH, Aidenbach, Germany). For contrast agent uptake studies 10^6 cells were inoculated into 25 cm^2 culture flasks (BD Biosciences, Bedford, USA) and grown for 24 h in 10 mL of the standard culture medium. Cells were then incubated for an additional 24 h (1 h for temperature dependence studies) with fresh medium containing 0, 1, 2.5, 5 or 10 μM of the selected gadolinium complex (three replicate flasks for each incubation). Afterwards the medium was removed, cells were trypsinated, washed twice, resuspended in culture medium and counted (typical yields: 3.5-6 million cells). For comparison 2.5×10^5 human melanocytes (Promo Cell, Heidelberg, Germany) were incubated for 24 h with melanocyte growth medium (Promo Cell, Heidelberg, Germany) containing 0, 1, 2.5, 5 or 10 μM of the selected gadolinium complex (two replicate flasks for each incubation). The work up procedure was as described above typically yielding 2.5×10^5 cells. Cultured human hepatocytes (Cytonet GmbH, Weinheim, Germany) embedded in a collagen matrix in a 12 well microtiter plate, with 6×10^5 viable cells per well were incubated for 24 h in hepatocyte growth medium (Cytonet GmbH, Weinheim, Germany) containing the same concentration series of selected gadolinium complexes. Afterwards the medium was removed, cells were separated using collagenase (Roche Diagnostics, Mannheim, Germany). After digestion the cells were washed twice with PBS, resuspended in culture medium and counted (typical yields: 6×10^5 cells per tube). The intracellular gadolinium content was determined by ICP-MS as described below.
(§2) ICP-MS. Samples containing the above mentioned number of harvested cells were digested with 50% concentrated HNO3 (Superselect; Merck, Darmstadt, Germany) under microwave heating with a Mars 5 apparatus (CEM GmbH, Kamp-Lintfort, Germany). To each sample 100 μL of an aqueous solution of rhodium chloride (1 μg/mL) were added so that Rh-103 could be used as an internal quantification standard. Gd-160 measurements were performed with the ICP-MS instrument mentioned above. The gadolinium concentrations were determined using standard curves created prior to cell analyses. For each uptake incubation condition triplicate cell samples were analyzed, and Gd content for each sample was recorded as the mean of two MS determinations.
(§3) Intracellular Uptake of Gadolinium Complexes. B16 melanoma and MH3924A hepatoma cells as well as human melanocytes and hepatocytes were incubated for 24 h in the presence of the gadolinium complexes shown in FIG. 1, using concentrations in the range of 1-10 μM. Incubations with the unsubstituted [Gd(DTPA)(H2O)]^2−complex (Magnevist®) served as controls. Following cell harvest and hydrolysis, inductively coupled plasma mass spectrometry (ICP-MS) with direct detection of gadolinium was used to quantitate complex uptake (triplicate cultures for each incubation).
(§4) Cell Uptake Studies. A493 (human kidney), B16 melanoma cells (mouse), HeLa (human cervix), MCF-7 (human breats), MH3924A (Morris hepatoma) cells (rat) and 3T3 NIH (mouse fibroblasts) were obtained from the DKFZ tumor cell collection. 3×10^6 cells of each cell type were grown for 24 hours in culture flasks. Afterwards they were incubated for 1 hour in 10 mL culture media containing 0, 10, 50 and 100 μM of Gd-2.2. Gd-3.2 or Gd-4.2. Afterwards the medium was removed, the cells were trypsinated, washed twice, resuspended in culture medium and counted. The gadolinium uptake was determined in triplicate. […] cells were incubated with 0, 1, 2.5, 5 and 10 μM of the Gd-1.2. and Gd-5.2. for 24 h. […]

B16 melanoma cells = test: as above; format: cell-based, mouse; details: for factor of higher cellular uptake in B16 melanoma vs. the hepatoma cells: 24-h incubation (FIG. 2A)
Method: as §1, §2, §3, §4

Complex stability = format: physicochemical; details: method of Sherry et al.
Method: Complex stability. The stability constants were determined using a method of Sherry et al. (39).

[2] = test system: subcutaneous MH3924A tumor; test: MRI of ACI rats bearing a subcutaneous MH3924A tumor; format: in vivo, rat; details: 24 h post Gd, 0.1 mmol/kg i.v., 2.35 T
Method: (§5) Animal models. For in vivo tumor studies 2×10^6 MH3924A tumor cells were injected subcutaneously into the right thigh of male ACI rats (Charles River, Sulzfeld, Germany) weighing 220 to 260 g. All animal experiments were performed in compliance with the German Animal Protection Laws (Permission 35-9185.81/G-7-03, Reg.-Praesidium, Karlsruhe, Germany).
MRI. At 25 days after inoculation, when tumors had reached a diameter of ca. 10-15 mm, the MR imaging experiments were initiated. ACI rats were anesthetized by intravenous injection of ketamin (Ketanest®, 0.1 mg/g body wt.; Parke-Davis, Berlin, Germany). Then a dose of 0.1 mmol/kg Magnevist® or Gadovist® (Schering, Berlin, Germany) or one of the synthesized agents Gd-3.1., Gd-5.1. or Gd-6.1. was injected intravenously into a lateral tail vein. For one experiment a higher dose (0.36 mmol/kg) of Magnevist® was used. Individual rats were examined by MRI at 1 h and 24 h post Gd, in the case of Magnevist® also at ca. 15 min post Gd. Proton imaging studies were performed at 2.35 T (100.3 MHz) with a Biospec 24/40 instrument (Bruker BioSpin MRI, Ettlingen, Germany). […] Two transaxial multislice imaging protocols were applied with a field of view of 70×70 mm, 128 time-domain data points, 96 phase-encoding steps, and 16 slices of 2 mm thickness. A multi-spin-echo sequence was used for proton-density and T2-weighted images (repetition time TR=2 s, 12 echoes with echo times TE of 8, 16, 24, . . . 96 ms, number of averages=1), and a spoiled gradient-echo sequence was used for T1-weighted imaging (TR=212 ms, TE=5 ms, flip angle=60°, number of averages=3). The data were Fourier transformed to give a 128×128 image matrix with 0.55 mm pixel resolution. Analogous T1-weighted images with coronal slices were acquired with a field of view of 80×80 mm and 3-mm slice thickness.
Imaging viewing, ROI analysis and export of TIFF files was performed with the freeware MRIcro from Chris Rorden (http://people.cas.sc.edu/rorden/mricro.html).

[3] = Biodistribution and excretion in tumor-bearing ACI rats; format: in vivo, rat
Method: as §5
Biodistribution and excretion data. At 14 days after tumor inoculation, when tumors had reached a diameter of ca. 5-6 mm, the biodistribution experiments were initiated. Each animal (210-250 g) was given an intravenous tail-vein injection of […] Magnevist® (Schering, Berlin, Germany) or […] of Gd-5.1. or Gd-6.1. 1 h and 24 hs post-injection (p.i.), the animals were weighed, sacrificed by cervical dislocation and dissected. Organs or tissues were blotted dry and weighed. Samples containing 100-500 mg of the tumor or organs were digested with concentrated HNO3 (Superselect; Merck, Darmstadt, Germany) and H2O2 under microwave heating with a Mars 5 apparatus (CEM GmbH, Kamp-Lintfort, Germany). To each sample 100 μL of an aqueous solution of rhodium chloride (1 μg/mL) were added so that Rh-103 could be used as an internal quantification standard. Gd-160 measurements were performed with the ICP-MS instrument mentioned above. The gadolinium concentrations were determined using standard curves created prior to tissue analyses. The results were expressed as % ID/g tissue. Urine and faeces were gathered in order to measure the excreted amount of Gd(III).

MH3924A cells = test: Polyamine transport inhibition (binding inhibition assay with benzyl viologen); format: cell-based, rat; details: 25 fold molar excess of benzyl viologen over 1 μM Gd-5.1 or Gd-6.1, MH3924A
Method: Polyamine transport inhibition. 10^6 MH3924A cells were inoculated into 25 cm^2 culture flasks (BD Biosciences, Bedford, USA) and grown for 24 h in 10 mL of the standard culture medium. Cells were then incubated for an additional 24 h with fresh medium containing 1 μM of Gd-5.1. or Gd-6.1. and 0, 1, 10, 25, 50 or 100 μM of the polyamine uptake inhibitor benzyl viologen (34, 35). Afterwards the medium was removed, cells were trypsinated, washed twice, resuspended in culture medium and counted (typical yields: 3.5-6 million cells). The gadolinium content of the cells was determined by ICP-MS as described below.
as §2

[4] = 1 h post i.v. injection, one ACI rat, scaled to Gd dose of 100 μmol/kg

SMILES: CCN(CC)CCNC(=O)c1ccc(NC(=O)CN(CCN(CCN(CC(=O)[O-])CC(=O)Nc2ccc(C(=O)NCCN(CC)CC)cc2)CC(=O)[O-])CC(=O)[O-])cc1.[Gd+3] [Gd-1.1]
- intracellular uptake of gadolinium complex ([1]; MH3924A cells, 24-h incubation, 10 μM): ca. 0.062 fmol/cell
- factor of higher cellular uptake in B16 melanoma vs. the hepatoma cells (B16 melanoma cells): ~2.2

SMILES: CCN(CC)CCNC(=O)c1ccc(NC(=O)CN2CCN(CC(=O)[O-])CCN(CC(=O)[O-])CCN(CC(=O)[O-])CC2)cc1.[Gd+3] [Gd-1.2]
- relative uptake (in words) ([1]; B16 and MH3924A, 24 h incubation, 1-10 μM): sufficient for MRI imaging purposes but was the lowest of all tested complexes

SMILES: CCN(CC)CCNC(=O)CN(CCN(CCN(CC(=O)[O-])CC(=O)NCCN(CC)CC)CC(=O)[O-])CC(=O)[O-].[Gd+3] [Gd-2.1]
- factor of higher cellular uptake in B16 melanoma vs. the hepatoma cells (B16 melanoma cells): ~1.72

SMILES: CCCCCCCCCNC(=O)CN(CCN(CCN(CC(=O)[O-])CC(=O)NCCN(CC)CC)CC(=O)[O-])CC(=O)[O-].[Gd+3] [Gd-4.1]
- intracellular uptake (neglectable, near the detection limit) (B16 melanoma cells; 24-h incubation, cell line and concentration not stated): 0.0036 fmol/cell

SMILES: NCCCNCCCCN(CCCN)C(=O)CN1CCN(CC(=O)[O-])CCN(CC(=O)[O-])CCN(CC(=O)[O-])CC1.[Gd+3] [Gd-4.2]
- relative uptake (in words) ([1]; MH3924A and B16 melanoma cells, 1 h incubation, 100 μM): comparable with the uptake of Gd-2.2., but somewhat lower; also recorded: lower than uptake of Gd-3.2. and Gd-2.2., but still sufficient for MRI imaging

SMILES: NCCCCN(CCCNCCCN)C(=O)CN(CCN(CCN(CC(=O)[O-])CC(=O)N(CCCCN)CCCNCCCN)CC(=O)[O-])CC(=O)[O-].[Gd+3] [Gd-5.2]
- intracellular uptake of gadolinium complex ([1]; MH3924A, 24 h incubation, 1-10 μM (concentration not given)): 0.3 fmol/cell
- intracellular uptake of gadolinium complex (B16 melanoma cells; B16 melanoma cells, 24 h incubation, 1-10 μM (concentration not given)): 0.03 fmol/cell
- complex stability constant (Complex stability): 4.22×10^15

SMILES: CNC[C@H](O)[C@@H](O)[C@H](O)[C@H](O)CO.CNC[C@H](O)[C@@H](O)[C@H](O)[C@H](O)CO.O=C([O-])CN(CCN(CC(=O)[O-])CC(=O)O)CCN(CC(=O)[O-])CC(=O)O.[Gd+3] [Magnevist, gadopentetate dimeglumine, reference compound]
- contrast ratio tumor vs. muscle tissue, T1 weighting [2]: no contrast with T1 weighting was achieved
- intracellular uptake (below ICP-MS detection limit) ([1]; MH3924A cells, 24-h incubation, 1-10 μM, listed as [Gd(DTPA)(H2O)]^2−): < 0.0002 fmol/cell
- intracellular uptake (below ICP-MS detection limit) (B16 melanoma cells; B16 melanoma cells, 24-h incubation, 1-10 μM): < 0.00002 fmol/cell
- intracellular uptake (below ICP-MS detection limit) (B16 melanoma cells; B16 melanoma cells, 24-h incubation, 1-10 μM, listed as [Gd(DTPA)(H2O)]^2−): < 0.0002 fmol/cell
- Gd concentration, Blood [3, 4]: 4.8 nmol/g
- Gd concentration, Bone (femur) [3, 4]: 0.8 nmol/g
- Gd concentration, Bone Marrow (femur) [3, 4]: 1.5 nmol/g
- Gd concentration, Brain [3, 4]: 0.4 nmol/g
- Gd concentration, Kidney (+urine) [3, 4]: 40.7 nmol/g
- Gd concentration, Liver [3, 4]: 3.0 nmol/g
- Gd concentration, Lung [3, 4]: 4.1 nmol/g
- Gd concentration, Muscle (femur) [3, 4]: 1.3 nmol/g
- Gd concentration, Small Intestine [3, 4]: 1.8 nmol/g
- Gd concentration, Spleen [3, 4]: 1.5 nmol/g
- Gd concentration, Tumor (MH3924A) [3, 4]: 3.1 nmol/g
- Gd concentration, Urine (cumulative) [3, 4]: 25805.3 nmol/g
- gadolinium found in the urine ([3]; one hour post injection, ACI rat): 88%

SMILES: O.O=C([O-])CN1CCN(CC(=O)[O-])CCN(CC(=O)[O-])CCN(CC(=O)[O-])CC1.[Gd+3] [[Gd(DOTA)(H2O)]^−, reference compound]
- intracellular uptake (below ICP-MS detection limit) ([1]; MH3924A cells, control incubation of Example 2): < 0.0002 fmol/cell
- intracellular uptake (below ICP-MS detection limit) (B16 melanoma cells; B16 melanoma cells, control incubation of Example 2): < 0.0002 fmol/cell

SMILES: c1ccc(C[n+]2ccc(-c3cc[n+](Cc4ccccc4)cc3)cc2)cc1 [benzyl viologen]
- inhibition of Gd complex uptake (MH3924A cells): up to 90%
